According to ChEMBL document CHEMBL4406894, “Design, synthesis and biological evaluation of novel desloratadine derivatives with anti-inflammatory and H1 antagonize activities” (Bioorg Med Chem Lett, 2019):
Active and inactive are the calls of the source. The calls are words filed in the database; no cut-off is given here.

Assays:
[1] = organism: Mus musculus; settings: BALB/C, at 5 mg/kg
[2] = tested on: Mus musculus; assay: Anti-inflammatory activity in DNFB-induced mouse ear edema model assessed as inhibition in ear swelling at 5 mg/kg relative to control; format: functional
[3] = tested on: Mus musculus; assay: Immunosuppressive activity in BALB/C mouse assessed as inhibition in TNFalpha production by TNFalpha level at 5 mg/kg by ELISA; format: functional
[4] = Intrinsic clearance in Rat liver microsomes incubated for 6 hrs by LC/MS analysis; format: ADME, Microsome; settings: read-out: CLH
[5] = Clearance in Sprague-Dawley rat at 2 mg/kg, iv; format: ADME, organism-based; settings: in vivo
[6] = Half life in Sprague-Dawley rat at 10 mg/kg, po; format: ADME, organism-based; settings: in vivo
[7] = Half life in mouse liver microsomes incubated for 6 hrs by LC/MS analysis; format: ADME, Microsome
[8] = Toxicity in ICR mouse; settings: in vivo
[9] = Intrinsic clearance in mouse liver microsomes incubated for 6 hrs by LC/MS analysis; format: ADME, Microsome; settings: read-out: CLH
[10] = Intrinsic clearance in human liver microsomes incubated for 6 hrs by LC/MS analysis; format: ADME, Microsome; settings: read-out: CLH
[11] = Toxicity in Sprague-Dawley rat; settings: in vivo
[12] = Half life in rat liver microsomes incubated for 6 hrs by LC/MS analysis; format: ADME, Microsome
[13] = Clearance in ICR mouse at 2.5 mg/kg, iv; format: ADME, organism-based; settings: in vivo
[14] = Half life in dog liver microsomes incubated for 6 hrs by LC/MS analysis; format: ADME, Canis lupus familiaris, Microsome
[15] = Intrinsic clearance in dog liver microsomes incubated for 6 hrs by LC/MS analysis; format: ADME, Canis lupus familiaris, Microsome; settings: read-out: CLH
[16] = Half life in human liver microsomes incubated for 6 hrs by LC/MS analysis; format: ADME, Microsome
[17] = Half life in ICR mouse at 2.5 mg/kg, iv; format: ADME, organism-based; settings: in vivo
[18] = Half life in Sprague-Dawley rat at 2 mg/kg, iv; format: ADME, organism-based; settings: in vivo
[19] = Oral bioavailability in Sprague-Dawley rat at 10 mg/kg; format: ADME, organism-based; settings: in vivo
[20] = Intrinsic clearance in monkey liver microsomes incubated for 6 hrs by LC/MS analysis; format: ADME, Macaca mulatta, Microsome; settings: rhesus monkey, read-out: CLH
[21] = Half life in monkey liver microsomes incubated for 6 hrs by LC/MS analysis; format: ADME, Macaca mulatta, Microsome; settings: rhesus monkey

With `COc1cccc(OCC(O)CN2CCC(=C3c4ccc(Cl)cc4CCc4cccnc43)CC2)c1` (configuration not stated) the inhibition [1] was “Active” and the inhibition in vivo at 5 mg/kg [2] was 43.1%.
Work on `COc1ccccc1OC[C@@H](O)CN1CCC(=C2c3ccc(Cl)cc3CCc3cccnc32)CC1` yielded an Activity [3] of 1.18 ng/mL.
In the case of `COc1ccccc1OCCCN1CCC(=C2c3ccc(Cl)cc3CCc3cccnc32)CC1`, the inhibition [1] is reported as “Active” and the inhibition in vivo at 5 mg/kg [2] is reported as 59.5%.
In the case of `Cc1ccccc1OCC(O)CN1CCC(=C2c3ccc(Cl)cc3CCc3cccnc32)CC1` (configuration not stated), the inhibition [1] is reported as “Active” and the inhibition in vivo at 5 mg/kg [2] is reported as 59.1%.
With `OC(COc1ccccc1F)CN1CCC(=C2c3ccc(Cl)cc3CCc3cccnc32)CC1` (configuration not stated) the inhibition [1] was “Active” and the inhibition in vivo at 5 mg/kg [2] was 26%.
With `OC(COc1ccccc1)CN1CCC(=C2c3ccc(Cl)cc3CCc3cccnc32)CC1` (configuration not stated) the inhibition [1] was “Active” and the inhibition in vivo at 5 mg/kg [2] was 59.1%.
Work on `COc1ccccc1OC[C@H](O)CN1CCC(=C2c3ccc(Cl)cc3CCc3cccnc32)CC1` yielded an Activity [3] of 1.21 ng/mL.
With `COc1ccccc1OCC(O)CN1CCC(=C2c3ccc(Cl)cc3CCc3cccnc32)CC1` (racemic) the microsomal CLint [4] was 359 µL/min/mg, the clearance [5] was 19.6 mL/min/kg and the half-life [6] was 84 min. It also gave a half-life [7] of 1.47 min, an Activity [3] of 1.14 ng/mL and an MTD [8] of 750 mg/kg. For the same compound, the microsomal CLint [9] was 945 µL/min/mg, the microsomal CLint [10] was 179 µL/min/mg and the MTD [11] was 750 mg/kg. The half-life [12] was 3.87 min, the clearance [13] was 99.5 mL/min/kg and the half-life [14] was 8.76 min. For the same compound, the microsomal CLint [15] was 158 µL/min/mg, the half-life [16] was 7.74 min and the inhibition in vivo at 5 mg/kg [2] was 59.2%. The half-life [17] was 28.2 min, the half-life [18] was 54 min and the bioavailability [19] was 18%.
In the case of `Clc1ccc2c(c1)CCc1cccnc1C2=C1CCNCC1` [DESLORATADINE], the LD50 [8] is reported as 250 mg/kg and the LD50 [11] is reported as 250 mg/kg.
Work on `Cc1ncc2n1-c1ccc(Cl)cc1C(c1ccccc1F)=NC2` [MIDAZOLAM] yielded a microsomal CLint [4] of 808 µL/min/mg, a half-life [7] of 8.06 min and a microsomal CLint [9] of 430 µL/min/mg. It also gave a microsomal CLint [10] of 289 µL/min/mg, a half-life [12] of 4.29 min and a half-life [14] of 2.81 min. For the same compound, the microsomal CLint [15] was 1230 µL/min/mg, the half-life [16] was 12 min and the microsomal CLint [20] was 927 µL/min/mg. It also gave a half-life [21] of 3.74 min.
